Data as given in patent US20260256792A1, “TREATMENT OF CHRONIC SPONTANEOUS URTICARIA BY ADMINISTERING (R)-2-[3-[4-AMINO-3-(2-FLUORO-4-PHENOXY-PHENYL)PYRAZOLO[3,4-D]PYRIMIDIN-1-YL]PIPERIDINE-1-CARBONYL]-4-METHYL-4-[4-(OXETAN-3-YL)PIPERAZIN-1-YL]PENT-2-ENENITRILE” (priority 2023, published 2026).

Test system: angioedema in CSU patients
Assay: Phase 2 CSU study: angioedema activity score over 7 days (AAS7)
Format: in vivo, human
Conditions: 400 mg QPM; for AAS7 = 0, Non-responder n (%) / AAS7 = 0, OR (95% CI) for rilzabrutinib vs. placebo / AAS7 = 0, RRD (%) for rilzabrutinib vs. placebo (95% CI) / AAS7 Post-baseline Mean (SD) / Participants with AAS7 = 0, Responder n (%) / AAS7 % Change difference for rilzabrutinib vs. placebo LS Mean (95% CI) / AAS7 % Change from baseline LS Mean (SE) / AAS7 Change difference for rilzabrutinib vs. placebo LS Mean (95% CI) / AAS7 Change from baseline LS Mean (SE): angioedema at baseline; for Non-responder n (%), AAS7 = 0 / OR (95% CI) for rilzabrutinib vs. placebo, AAS7 = 0 / RRD (%) for rilzabrutinib vs. placebo (95% CI), AAS7 = 0 / Responder n (%), AAS7 = 0: outlier removed
Text: The study comprises a 12 week, randomized, double-blind, placebo-controlled, multi-center, dose-ranging efficacy and safety phase, followed by a 40 week open label extension (OLE) phase (see FIG. 1). The study consists of three phases and an optional OLE phase. […] The weekly angioedema activity score (AAS7) was proposed as a tertiary endpoint. […] Patients were to complete the AAS using the e-diary. The e-diary was to be used once daily on the same time of each day recording of participant's answers to the angioedema activity score over 7 days (AAS7) questionnaire.

CC(C)(C=C(C#N)C(=O)N1CCC[C@@H](n2nc(-c3ccc(Oc4ccccc4)cc3F)c3c(N)ncnc32)C1)N1CCN(C2COC2)CC1 [rilzabrutinib, (R)-2-[3-[4-amino-3-(2-fluoro-4-phenoxy-phenyl)pyrazolo[3,4-d]pyrimidin-1-yl]piperidine-1-carbonyl]-4-methyl-4-[4-(oxetan-3-yl)piperazin-1-yl]pent-2-enenitrile]
AAS7 = 0, Non-responder n (%) (Week 4, omalizumab-naïve): 21 (77.8) n (%) | AAS7 = 0, OR (95% CI) for rilzabrutinib vs. placebo (Week 4, omalizumab-naïve): 0.869 | AAS7 = 0, RRD (%) for rilzabrutinib vs. placebo (95% CI) (Week 4, omalizumab-naïve): −2.4 % | AAS7 Post-baseline Mean (SD) (Week 4, omalizumab-naïve): 29.55 (20.68) | Participants with AAS7 = 0, Responder n (%) (Week 4, omalizumab-naïve): 6 (22.2) n (%) | AAS7 % Change difference for rilzabrutinib vs. placebo LS Mean (95% CI) (Week 5, ITT): −0.88 (−26.37, 24.61) % | AAS7 % Change from baseline LS Mean (SE) (Week 5, ITT): −54.71 (9.56) % | AAS7 Change difference for rilzabrutinib vs. placebo LS Mean (95% CI) (Week 5, ITT): 1.56 (−9.31, 12.42) | AAS7 Change from baseline LS Mean (SE) (Week 5, ITT): −28.04 (4.08) | AAS7 Post-baseline Mean (SD) (Week 5, ITT): 25.01 (22.48) | Non-responder n (%), AAS7 = 0 (Week 5, omalizumab-naïve): 21 (56.8) n (%) | OR (95% CI) for rilzabrutinib vs. placebo, AAS7 = 0 (Week 5, omalizumab-naïve): 0.872 | RRD (%) for rilzabrutinib vs. placebo (95% CI), AAS7 = 0 (Week 5, omalizumab-naïve): −3.4 % | Responder n (%), AAS7 = 0 (Week 5, omalizumab-naïve): 16 (43.2) n (%) | AAS7 % Change difference for rilzabrutinib vs. placebo LS Mean (95% CI) (Week 5, omalizumab-naïve): −1.04 (−28.01, 25.93) % | AAS7 % Change from baseline LS Mean (SE) (Week 5, omalizumab-naïve): −55.66 (9.83) % | AAS7 = 0, Non-responder n (%) (Week 5, omalizumab-naïve): 19 (70.4) n (%) | AAS7 = 0, OR (95% CI) for rilzabrutinib vs. placebo (Week 5, omalizumab-naïve): 1.079 | AAS7 = 0, RRD (%) for rilzabrutinib vs. placebo (95% CI) (Week 5, omalizumab-naïve): 1.6 % | AAS7 Post-baseline Mean (SD) (Week 5, omalizumab-naïve): 24.55 (22.80) | Participants with AAS7 = 0, Responder n (%) (Week 5, omalizumab-naïve): 8 (29.6) n (%) | AAS7 % Change difference for rilzabrutinib vs. placebo LS Mean (95% CI) (Week 6, ITT): 1.19 (−25.36, 27.75) % | AAS7 % Change from baseline LS Mean (SE) (Week 6, ITT): −46.12 (9.92) % | AAS7 Change from baseline LS Mean (SE) (Week 6, ITT): −25.61 (4.32) | AAS7 Post-baseline Mean (SD) (Week 6, ITT): 27.97 (22.56) | Non-responder n (%), AAS7 = 0 (Week 6, omalizumab-naïve): 24 (64.9) n (%) | OR (95% CI) for rilzabrutinib vs. placebo, AAS7 = 0 (Week 6, omalizumab-naïve): 0.606 | RRD (%) for rilzabrutinib vs. placebo (95% CI), AAS7 = 0 (Week 6, omalizumab-naïve): −11.4 % | Responder n (%), AAS7 = 0 (Week 6, omalizumab-naïve): 13 (35.1) n (%) | AAS7 % Change difference for rilzabrutinib vs. placebo LS Mean (95% CI) (Week 6, omalizumab-naïve): 2.62 (−26.14, 31.38) % | AAS7 = 0, Non-responder n (%) (Week 6, omalizumab-naïve): 23 (85.2) n (%) | AAS7 = 0, OR (95% CI) for rilzabrutinib vs. placebo (Week 6, omalizumab-naïve): 0.437 | AAS7 = 0, RRD (%) for rilzabrutinib vs. placebo (95% CI) (Week 6, omalizumab-naïve): −13.0 % | AAS7 Post-baseline Mean (SD) (Week 6, omalizumab-naïve): 28.26 (23.00) | Participants with AAS7 = 0, Responder n (%) (Week 6, omalizumab-naïve): 4 (14.8) n (%) | AAS7 % Change difference for rilzabrutinib vs. placebo LS Mean (95% CI) (Week 7, ITT): 16.32 (−13.52, 46.16) % | AAS7 Change difference for rilzabrutinib vs. placebo LS Mean (95% CI) (Week 7, ITT): 4.35 (−7.06, 15.76) | AAS7 Change from baseline LS Mean (SE) (Week 7, ITT): −22.95 (4.29) | AAS7 Post-baseline Mean (SD) (Week 7, ITT): 31.05 (21.43) | Non-responder n (%), AAS7 = 0 (Week 7, omalizumab-naïve): 24 (64.9) n (%) | OR (95% CI) for rilzabrutinib vs. placebo, AAS7 = 0 (Week 7, omalizumab-naïve): 0.611 | RRD (%) for rilzabrutinib vs. placebo (95% CI), AAS7 = 0 (Week 7, omalizumab-naïve): −11.8 % | Responder n (%), AAS7 = 0 (Week 7, omalizumab-naïve): 13 (35.1) n (%) | AAS7 % Change difference for rilzabrutinib vs. placebo LS Mean (95% CI) (Week 7, omalizumab-naïve): 19.61 (−12.44, 51.65) % | AAS7 = 0, OR (95% CI) for rilzabrutinib vs. placebo (Week 7, omalizumab-naïve): 0.200 | AAS7 = 0, RRD (%) for rilzabrutinib vs. placebo (95% CI) (Week 7, omalizumab-naïve): −23.0 % | AAS7 Post-baseline Mean (SD) (Week 7, omalizumab-naïve): 31.88 (21.51) | AAS7 % Change difference for rilzabrutinib vs. placebo LS Mean (95% CI) (Week 8, ITT): −2.51 (−32.23, 27.22) % | AAS7 Change difference for rilzabrutinib vs. placebo LS Mean (95% CI) (Week 8, ITT): −1.74 (−12.55, 9.06) | AAS7 Change from baseline LS Mean (SE) (Week 8, ITT): −30.07 (4.07) | AAS7 Post-baseline Mean (SD) (Week 8, ITT): 24.69 (22.82) | Non-responder n (%), AAS7 = 0 (Week 8, omalizumab-naïve): 20 (54.1) n (%) | OR (95% CI) for rilzabrutinib vs. placebo, AAS7 = 0 (Week 8, omalizumab-naïve): 1.185 | RRD (%) for rilzabrutinib vs. placebo (95% CI), AAS7 = 0 (Week 8, omalizumab-naïve): 4.2 % | Responder n (%), AAS7 = 0 (Week 8, omalizumab-naïve): 17 (45.9) n (%) | AAS7 % Change difference for rilzabrutinib vs. placebo LS Mean (95% CI) (Week 8, omalizumab-naïve): −4.14 (−36.36, 28.09) % | AAS7 = 0, Non-responder n (%) (Week 8, omalizumab-naïve): 20 (74.1) n (%) | AAS7 = 0, OR (95% CI) for rilzabrutinib vs. placebo (Week 8, omalizumab-naïve): 0.929 | AAS7 = 0, RRD (%) for rilzabrutinib vs. placebo (95% CI) (Week 8, omalizumab-naïve): −1.3 %
